Measured values taken from ChEMBL document CHEMBL3991601, “The target landscape of clinical kinase drugs” (Science, 2017).
The source made the active and inactive calls.

Experiments:
Obg-like ATPase 1 = Obg-like ATPase 1 (Homo sapiens, UniProt Q9NTK5)
[1] = target: Mitogen-activated protein kinase 14 (Homo sapiens, UniProt Q16539)
[2] = target: T1, Phosphatidylinositol 5-phosphate 4-kinase type-2 alpha (Homo sapiens, UniProt P48426)
T1 sequence (P48426 whole entry): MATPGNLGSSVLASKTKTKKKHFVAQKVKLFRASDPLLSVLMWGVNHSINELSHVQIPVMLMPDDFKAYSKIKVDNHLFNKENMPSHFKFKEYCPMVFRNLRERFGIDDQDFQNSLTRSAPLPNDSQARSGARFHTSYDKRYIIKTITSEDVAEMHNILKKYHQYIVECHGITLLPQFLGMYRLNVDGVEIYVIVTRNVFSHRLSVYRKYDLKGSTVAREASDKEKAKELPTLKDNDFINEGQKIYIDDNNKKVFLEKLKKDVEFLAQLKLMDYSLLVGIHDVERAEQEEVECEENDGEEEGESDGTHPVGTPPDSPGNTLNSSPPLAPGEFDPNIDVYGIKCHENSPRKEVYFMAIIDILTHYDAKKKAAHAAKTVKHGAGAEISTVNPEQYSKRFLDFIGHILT

[3] = target: Serine/threonine-protein kinase N3 (Homo sapiens, UniProt Q6P5Z2)
[4] = target: Tyrosine-protein kinase Lyn (Homo sapiens, UniProt P07948)
[5] = target: Dual specificity protein kinase CLK2 (Homo sapiens, UniProt P49760)
[6] = target: T2, Acyl-CoA dehydrogenase family member 10 (Homo sapiens, UniProt Q6JQN1)
T2 sequence (Q6JQN1 whole entry): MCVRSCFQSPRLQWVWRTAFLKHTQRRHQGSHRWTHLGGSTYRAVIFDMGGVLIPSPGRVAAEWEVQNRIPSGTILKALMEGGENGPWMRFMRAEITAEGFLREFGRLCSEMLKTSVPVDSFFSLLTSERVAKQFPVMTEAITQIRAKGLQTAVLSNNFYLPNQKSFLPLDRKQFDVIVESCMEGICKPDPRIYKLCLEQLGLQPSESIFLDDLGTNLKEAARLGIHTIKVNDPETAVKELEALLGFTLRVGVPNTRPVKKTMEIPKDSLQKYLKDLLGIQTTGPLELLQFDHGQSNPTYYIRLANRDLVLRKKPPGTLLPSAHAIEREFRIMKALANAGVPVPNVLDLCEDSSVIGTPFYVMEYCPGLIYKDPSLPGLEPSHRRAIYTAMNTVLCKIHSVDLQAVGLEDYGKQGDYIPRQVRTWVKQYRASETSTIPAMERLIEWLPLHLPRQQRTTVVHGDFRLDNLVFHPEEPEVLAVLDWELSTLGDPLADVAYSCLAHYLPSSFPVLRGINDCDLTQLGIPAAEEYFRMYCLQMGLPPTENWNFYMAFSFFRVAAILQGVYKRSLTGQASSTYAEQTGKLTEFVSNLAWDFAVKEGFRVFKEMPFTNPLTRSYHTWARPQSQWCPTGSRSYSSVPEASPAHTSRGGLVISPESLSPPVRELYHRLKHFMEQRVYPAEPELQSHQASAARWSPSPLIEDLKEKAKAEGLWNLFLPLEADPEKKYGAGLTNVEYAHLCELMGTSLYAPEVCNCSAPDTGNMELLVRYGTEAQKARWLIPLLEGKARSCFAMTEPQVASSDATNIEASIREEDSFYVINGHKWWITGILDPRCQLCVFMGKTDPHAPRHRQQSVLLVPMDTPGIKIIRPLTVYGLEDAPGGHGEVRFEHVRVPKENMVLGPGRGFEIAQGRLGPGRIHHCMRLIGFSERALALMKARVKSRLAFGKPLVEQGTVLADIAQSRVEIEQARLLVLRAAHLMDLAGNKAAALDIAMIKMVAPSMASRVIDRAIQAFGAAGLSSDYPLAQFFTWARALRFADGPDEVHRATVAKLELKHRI

[7] = target: Dual specificity protein kinase CLK4 (Homo sapiens, UniProt Q9HAZ1)
[8] = target: Choline-phosphate cytidylyltransferase A (Homo sapiens, UniProt P49585)
[9] = target: T3, Serine/threonine-protein kinase Nek9 (Homo sapiens, UniProt Q8TD19)
T3 sequence (Q8TD19 whole entry): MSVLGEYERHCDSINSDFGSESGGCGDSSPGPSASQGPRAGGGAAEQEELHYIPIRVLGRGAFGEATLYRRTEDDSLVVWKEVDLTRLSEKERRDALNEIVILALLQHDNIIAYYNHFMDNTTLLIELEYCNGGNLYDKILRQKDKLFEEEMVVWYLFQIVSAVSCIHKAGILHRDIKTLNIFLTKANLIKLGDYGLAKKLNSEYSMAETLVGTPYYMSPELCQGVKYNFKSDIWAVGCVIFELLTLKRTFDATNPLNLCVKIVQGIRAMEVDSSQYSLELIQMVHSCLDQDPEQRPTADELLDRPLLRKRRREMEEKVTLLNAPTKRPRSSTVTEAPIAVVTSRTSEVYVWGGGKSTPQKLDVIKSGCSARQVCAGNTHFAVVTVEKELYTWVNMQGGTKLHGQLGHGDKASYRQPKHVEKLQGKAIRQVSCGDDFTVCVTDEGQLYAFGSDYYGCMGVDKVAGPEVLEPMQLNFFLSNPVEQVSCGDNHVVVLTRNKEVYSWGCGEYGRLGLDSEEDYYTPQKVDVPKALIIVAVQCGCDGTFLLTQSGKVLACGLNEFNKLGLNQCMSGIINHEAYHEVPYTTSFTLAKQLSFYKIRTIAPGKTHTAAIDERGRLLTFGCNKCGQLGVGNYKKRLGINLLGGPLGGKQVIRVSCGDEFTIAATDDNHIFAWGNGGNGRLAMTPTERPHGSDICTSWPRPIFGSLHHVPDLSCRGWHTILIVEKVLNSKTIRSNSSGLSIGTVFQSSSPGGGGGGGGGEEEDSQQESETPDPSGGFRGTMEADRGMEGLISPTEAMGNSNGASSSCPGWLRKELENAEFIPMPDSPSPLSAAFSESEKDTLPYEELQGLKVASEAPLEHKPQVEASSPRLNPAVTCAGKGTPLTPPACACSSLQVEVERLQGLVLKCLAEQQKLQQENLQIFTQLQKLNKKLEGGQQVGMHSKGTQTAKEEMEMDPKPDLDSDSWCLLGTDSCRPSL

[10] = target: TRAF2 and NCK-interacting protein kinase (Homo sapiens, UniProt Q9UKE5)
Note: in the data inactive means no Kd found up to 30 µM.

Sequence of Serine/threonine-protein kinase N3 (Q6P5Z2 whole entry): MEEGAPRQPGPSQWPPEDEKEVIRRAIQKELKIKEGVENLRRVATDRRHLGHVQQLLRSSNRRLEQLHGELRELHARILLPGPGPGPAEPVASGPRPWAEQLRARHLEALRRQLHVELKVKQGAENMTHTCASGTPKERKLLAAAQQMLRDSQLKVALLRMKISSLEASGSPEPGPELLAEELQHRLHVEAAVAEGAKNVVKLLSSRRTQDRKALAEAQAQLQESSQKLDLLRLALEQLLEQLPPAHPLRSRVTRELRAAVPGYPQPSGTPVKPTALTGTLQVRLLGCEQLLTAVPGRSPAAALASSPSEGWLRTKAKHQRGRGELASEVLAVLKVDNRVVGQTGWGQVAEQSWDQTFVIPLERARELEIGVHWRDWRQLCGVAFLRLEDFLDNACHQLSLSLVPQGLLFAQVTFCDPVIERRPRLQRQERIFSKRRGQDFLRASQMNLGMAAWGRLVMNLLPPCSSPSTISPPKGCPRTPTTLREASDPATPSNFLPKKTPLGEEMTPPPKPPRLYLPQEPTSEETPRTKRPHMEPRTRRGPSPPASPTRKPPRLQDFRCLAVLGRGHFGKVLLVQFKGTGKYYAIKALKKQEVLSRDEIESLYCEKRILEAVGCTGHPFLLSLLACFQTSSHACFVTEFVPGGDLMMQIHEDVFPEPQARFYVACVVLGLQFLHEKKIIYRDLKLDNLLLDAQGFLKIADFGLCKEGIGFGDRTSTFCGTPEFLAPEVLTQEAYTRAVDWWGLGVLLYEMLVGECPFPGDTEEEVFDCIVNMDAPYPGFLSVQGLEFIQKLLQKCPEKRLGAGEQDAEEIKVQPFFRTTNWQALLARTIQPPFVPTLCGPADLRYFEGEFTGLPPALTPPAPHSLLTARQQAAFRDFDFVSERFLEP
Sequence of Choline-phosphate cytidylyltransferase A (P49585 whole entry): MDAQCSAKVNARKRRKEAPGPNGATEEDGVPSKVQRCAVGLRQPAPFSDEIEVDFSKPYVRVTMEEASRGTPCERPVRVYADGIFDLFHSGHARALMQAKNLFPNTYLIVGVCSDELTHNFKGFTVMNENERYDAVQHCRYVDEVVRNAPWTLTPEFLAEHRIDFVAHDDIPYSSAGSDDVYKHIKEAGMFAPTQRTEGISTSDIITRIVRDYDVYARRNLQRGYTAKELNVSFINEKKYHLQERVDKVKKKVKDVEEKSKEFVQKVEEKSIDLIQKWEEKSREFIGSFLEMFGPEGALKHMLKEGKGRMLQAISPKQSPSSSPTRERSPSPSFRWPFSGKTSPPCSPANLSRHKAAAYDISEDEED
Sequence of Mitogen-activated protein kinase 14 (Q16539 whole entry): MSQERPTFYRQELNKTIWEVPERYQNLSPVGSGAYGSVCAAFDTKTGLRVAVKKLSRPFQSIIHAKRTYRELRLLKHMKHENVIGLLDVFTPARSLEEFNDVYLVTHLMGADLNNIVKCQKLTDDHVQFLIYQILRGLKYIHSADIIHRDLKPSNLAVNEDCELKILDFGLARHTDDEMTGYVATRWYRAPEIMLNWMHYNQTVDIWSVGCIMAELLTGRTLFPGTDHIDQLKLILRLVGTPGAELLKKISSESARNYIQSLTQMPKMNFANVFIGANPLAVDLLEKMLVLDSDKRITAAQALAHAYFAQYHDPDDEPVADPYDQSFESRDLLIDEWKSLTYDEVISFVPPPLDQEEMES
Sequence of Dual specificity protein kinase CLK4 (Q9HAZ1 whole entry): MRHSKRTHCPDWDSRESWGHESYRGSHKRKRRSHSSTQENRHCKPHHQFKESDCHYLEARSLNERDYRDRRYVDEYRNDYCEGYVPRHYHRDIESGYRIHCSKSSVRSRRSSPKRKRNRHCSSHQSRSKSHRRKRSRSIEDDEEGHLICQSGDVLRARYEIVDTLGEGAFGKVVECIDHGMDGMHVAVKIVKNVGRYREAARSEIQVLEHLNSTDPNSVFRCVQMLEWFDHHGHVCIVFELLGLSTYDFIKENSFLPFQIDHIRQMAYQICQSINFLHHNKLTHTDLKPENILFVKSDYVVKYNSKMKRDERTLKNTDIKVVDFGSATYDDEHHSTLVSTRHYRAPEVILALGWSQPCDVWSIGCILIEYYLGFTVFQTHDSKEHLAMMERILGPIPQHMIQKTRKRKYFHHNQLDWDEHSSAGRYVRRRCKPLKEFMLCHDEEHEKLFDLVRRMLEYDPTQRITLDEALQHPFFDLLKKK
Sequence of Dual specificity protein kinase CLK2 (P49760 whole entry): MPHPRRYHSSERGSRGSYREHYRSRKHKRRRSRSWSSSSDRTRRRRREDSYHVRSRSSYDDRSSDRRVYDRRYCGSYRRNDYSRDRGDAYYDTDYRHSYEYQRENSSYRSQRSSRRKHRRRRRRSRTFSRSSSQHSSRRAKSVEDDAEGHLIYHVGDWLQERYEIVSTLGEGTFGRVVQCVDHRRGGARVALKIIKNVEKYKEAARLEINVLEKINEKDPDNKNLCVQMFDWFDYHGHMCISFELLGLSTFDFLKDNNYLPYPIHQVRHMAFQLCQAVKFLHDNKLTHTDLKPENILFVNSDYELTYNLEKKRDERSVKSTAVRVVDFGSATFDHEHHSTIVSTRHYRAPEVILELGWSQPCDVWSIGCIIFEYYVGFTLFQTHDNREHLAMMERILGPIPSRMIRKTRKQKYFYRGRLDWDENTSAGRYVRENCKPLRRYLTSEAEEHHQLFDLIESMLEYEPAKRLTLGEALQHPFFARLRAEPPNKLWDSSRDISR
Sequence of Tyrosine-protein kinase Lyn (P07948 whole entry): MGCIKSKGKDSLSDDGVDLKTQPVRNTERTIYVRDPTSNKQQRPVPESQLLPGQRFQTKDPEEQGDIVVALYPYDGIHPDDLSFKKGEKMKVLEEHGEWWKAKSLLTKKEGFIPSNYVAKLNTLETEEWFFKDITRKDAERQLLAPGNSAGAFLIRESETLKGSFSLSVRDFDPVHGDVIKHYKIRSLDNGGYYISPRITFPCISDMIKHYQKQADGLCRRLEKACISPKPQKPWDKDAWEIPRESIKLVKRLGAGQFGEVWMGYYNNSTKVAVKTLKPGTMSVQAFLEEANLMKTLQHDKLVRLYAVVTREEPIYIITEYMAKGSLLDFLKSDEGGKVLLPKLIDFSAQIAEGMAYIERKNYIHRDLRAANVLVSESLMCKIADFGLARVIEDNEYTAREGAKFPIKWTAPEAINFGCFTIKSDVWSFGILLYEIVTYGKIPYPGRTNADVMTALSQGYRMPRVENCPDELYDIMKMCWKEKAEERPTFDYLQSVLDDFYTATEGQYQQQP
Sequence of TRAF2 and NCK-interacting protein kinase (Q9UKE5 whole entry): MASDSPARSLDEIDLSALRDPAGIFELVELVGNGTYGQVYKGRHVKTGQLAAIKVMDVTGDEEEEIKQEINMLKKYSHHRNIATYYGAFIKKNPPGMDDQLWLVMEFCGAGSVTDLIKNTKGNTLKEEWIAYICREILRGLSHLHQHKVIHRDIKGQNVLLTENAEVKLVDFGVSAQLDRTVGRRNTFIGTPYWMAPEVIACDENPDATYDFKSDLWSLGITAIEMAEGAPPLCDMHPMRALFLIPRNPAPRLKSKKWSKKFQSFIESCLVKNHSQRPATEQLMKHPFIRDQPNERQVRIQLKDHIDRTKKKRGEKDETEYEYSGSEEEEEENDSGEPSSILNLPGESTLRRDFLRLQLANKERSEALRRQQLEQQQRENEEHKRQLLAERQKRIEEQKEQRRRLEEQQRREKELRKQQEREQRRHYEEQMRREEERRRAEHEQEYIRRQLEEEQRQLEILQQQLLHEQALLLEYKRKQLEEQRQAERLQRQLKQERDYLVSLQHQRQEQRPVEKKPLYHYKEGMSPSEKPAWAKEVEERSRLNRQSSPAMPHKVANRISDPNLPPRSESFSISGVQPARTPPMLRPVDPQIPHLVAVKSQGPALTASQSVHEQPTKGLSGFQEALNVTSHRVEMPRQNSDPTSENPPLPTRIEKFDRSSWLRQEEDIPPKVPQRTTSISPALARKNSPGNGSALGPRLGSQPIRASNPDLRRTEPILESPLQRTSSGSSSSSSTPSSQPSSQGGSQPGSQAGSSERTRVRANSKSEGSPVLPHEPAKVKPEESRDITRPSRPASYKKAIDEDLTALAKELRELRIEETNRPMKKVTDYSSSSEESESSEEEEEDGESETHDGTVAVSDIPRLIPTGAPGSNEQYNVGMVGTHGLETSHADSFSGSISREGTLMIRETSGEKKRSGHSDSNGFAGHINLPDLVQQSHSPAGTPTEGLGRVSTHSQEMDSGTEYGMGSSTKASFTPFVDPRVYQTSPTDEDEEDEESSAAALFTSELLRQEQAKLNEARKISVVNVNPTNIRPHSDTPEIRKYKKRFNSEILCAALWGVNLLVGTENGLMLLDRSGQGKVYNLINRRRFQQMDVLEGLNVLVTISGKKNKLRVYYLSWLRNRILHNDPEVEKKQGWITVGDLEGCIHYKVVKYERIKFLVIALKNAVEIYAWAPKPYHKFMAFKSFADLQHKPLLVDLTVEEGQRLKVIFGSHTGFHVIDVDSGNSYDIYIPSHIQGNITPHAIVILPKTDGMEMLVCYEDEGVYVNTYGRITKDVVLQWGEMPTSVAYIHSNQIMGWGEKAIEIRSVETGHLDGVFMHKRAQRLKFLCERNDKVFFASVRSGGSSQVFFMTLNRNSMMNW
Sequence of Obg-like ATPase 1 (Q9NTK5 whole entry, looked up): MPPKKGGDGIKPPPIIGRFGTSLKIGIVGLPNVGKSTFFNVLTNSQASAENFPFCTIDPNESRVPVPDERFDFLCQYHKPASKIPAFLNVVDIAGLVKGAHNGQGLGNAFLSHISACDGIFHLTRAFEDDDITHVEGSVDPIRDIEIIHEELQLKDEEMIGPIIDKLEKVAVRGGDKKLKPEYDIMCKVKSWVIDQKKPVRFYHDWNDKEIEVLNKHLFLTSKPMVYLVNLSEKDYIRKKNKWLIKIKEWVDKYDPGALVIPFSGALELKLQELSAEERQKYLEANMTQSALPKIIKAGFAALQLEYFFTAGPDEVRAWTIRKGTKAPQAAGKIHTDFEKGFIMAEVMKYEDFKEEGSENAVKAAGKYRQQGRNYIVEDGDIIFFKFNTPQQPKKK

Compound | Kd (Obg-like ATPase 1) | Kd [1] | Kd [2] | Kd [3] | Kd [4] | Kd [5] | Kd [6] | Kd [7] | Kd [8] | Kd [9] | Kd [10]
COc1cc2nccc(Oc3ccc(NC(=O)Nc4cc(C)on4)c(Cl)c3)c2cc1OC [TIVOZANIB] | > 30 µM (inactive) | > 30 µM (inactive) | > 30 µM (inactive) | > 30 µM (inactive) | 2.02 µM (active) | > 30 µM (inactive) | > 30 µM (inactive) | > 30 µM (inactive) | > 30 µM (inactive) | > 30 µM (inactive) | –
COc1cc(OC)c(/C=C/S(=O)(=O)Cc2ccc(OC)c(NCC(=O)O)c2)c(OC)c1 [RIGOSERTIB] | > 30 µM (inactive) | > 30 µM (inactive) | > 30 µM (inactive) | > 30 µM (inactive) | > 30 µM (inactive) | > 30 µM (inactive) | > 30 µM (inactive) | > 30 µM (inactive) | > 30 µM (inactive) | > 30 µM (inactive) | > 30 µM (inactive)
CNC(=O)c1cc(Oc2ccc(NC(=O)Nc3ccc(Cl)c(C(F)(F)F)c3)c(F)c2)ccn1 [REGORAFENIB] | > 30 µM (inactive) | 0.705 µM (active) | > 30 µM (inactive) | > 30 µM (inactive) | > 30 µM (inactive) | > 30 µM (inactive) | > 30 µM (inactive) | > 30 µM (inactive) | > 30 µM (inactive) | > 30 µM (inactive) | > 30 µM (inactive)
CC[C@@H]1C(=O)N(C)c2cnc(Nc3ccc(C(=O)N[C@H]4CC[C@H](N5CCN(CC6CC6)CC5)CC4)cc3OC)nc2N1C(C)C [VOLASERTIB] | > 30 µM (inactive) | > 30 µM (inactive) | > 30 µM (inactive) | > 30 µM (inactive) | > 30 µM (inactive) | > 30 µM (inactive) | > 30 µM (inactive) | > 30 µM (inactive) | > 30 µM (inactive) | > 30 µM (inactive) | > 30 µM (inactive)
COC(=O)N[C@@H](C)CNc1nccc(-c2cn(C(C)C)nc2-c2cc(Cl)cc(NS(C)(=O)=O)c2F)n1 [ENCORAFENIB] | > 30 µM (inactive) | > 30 µM (inactive) | > 30 µM (inactive) | > 30 µM (inactive) | > 30 µM (inactive) | > 30 µM (inactive) | > 30 µM (inactive) | > 30 µM (inactive) | 0.041 µM | > 30 µM (inactive) | > 30 µM (inactive)
COCCNCc1ccc(-c2cc3nccc(Oc4ccc(NC(=S)NC(=O)Cc5ccc(F)cc5)cc4F)c3s2)nc1 [GLESATINIB] | > 30 µM (inactive) | > 30 µM (inactive) | > 30 µM (inactive) | > 30 µM (inactive) | – | > 30 µM (inactive) | > 30 µM (inactive) | > 30 µM (inactive) | > 30 µM (inactive) | > 30 µM (inactive) | > 30 µM (inactive)
CO[C@H]1C[C@@H]2CC[C@@H](C)[C@@](O)(O2)C(=O)C(=O)N2CCCC[C@H]2C(=O)O[C@H]([C@H](C)C[C@@H]2CC[C@@H](OCCO)[C@H](OC)C2)CC(=O)[C@H](C)/C=C(\C)[C@@H](O)[C@@H](OC)C(=O)[C@H](C)C[C@H](C)/C=C/C=C/C=C/1C [EVEROLIMUS] | > 30 µM (inactive) | > 30 µM (inactive) | > 30 µM (inactive) | > 30 µM (inactive) | > 30 µM (inactive) | > 30 µM (inactive) | > 30 µM (inactive) | > 30 µM (inactive) | > 30 µM (inactive) | > 30 µM (inactive) | > 30 µM (inactive)
CC(=O)Nc1cccc(-n2c(=O)n(C3CC3)c(=O)c3c(Nc4ccc(I)cc4F)n(C)c(=O)c(C)c32)c1 [TRAMETINIB] | > 30 µM (inactive) | > 30 µM (inactive) | > 30 µM (inactive) | > 30 µM (inactive) | > 30 µM (inactive) | > 30 µM (inactive) | > 30 µM (inactive) | > 30 µM (inactive) | > 30 µM (inactive) | > 30 µM (inactive) | > 30 µM (inactive)
O=C(O)[C@]1(Cc2cccc(Nc3nccs3)n2)CC[C@@H](Oc2cccc(Cl)c2F)CC1 [MK-5108] | > 30 µM (inactive) | > 30 µM (inactive) | > 30 µM (inactive) | > 30 µM (inactive) | > 30 µM (inactive) | > 30 µM (inactive) | 2.47 µM (active) | > 30 µM (inactive) | > 30 µM (inactive) | > 30 µM (inactive) | > 30 µM (inactive)
Cc1ccc(NC(=O)c2ccc(CN3CC[C@H](N(C)C)C3)c(C(F)(F)F)c2)cc1Nc1nccc(-c2cncnc2)n1 [BAFETINIB] | > 30 µM (inactive) | 0.536 µM (active) | > 30 µM (inactive) | > 30 µM (inactive) | 0.239 µM (active) | > 30 µM (inactive) | > 30 µM (inactive) | > 30 µM (inactive) | > 30 µM (inactive) | > 30 µM (inactive) | > 30 µM (inactive)
O=C(c1ccc(F)c(F)c1Nc1ccc(I)cc1F)N1CC(O)([C@@H]2CCCCN2)C1 [COBIMETINIB] | – | > 30 µM (inactive) | > 30 µM (inactive) | > 30 µM (inactive) | > 30 µM (inactive) | > 30 µM (inactive) | > 30 µM (inactive) | > 30 µM (inactive) | > 30 µM (inactive) | > 30 µM (inactive) | > 30 µM (inactive)
